Eleven substances from patent publication US20220401514A1, “ANTIMICROBIAL, BACTERIOPHAGE-DERIVED POLYPEPTIDES AND THEIR USE AGAINST GRAM-NEGATIVE AND ACID-FAST BACTERIA” (CONTRAFECT CORPORATION, priority 2019, published 2022) can be followed below.

Test [1] concerns Klebsiella pneumoniae. The class given is cell-based. Conditions: Klebsiella pneumoniae HM-44; CAA supplemented with human serum. As to the method:
(§1) Determination of Minimal Inhibitory Concentrations (MIC).
(§2) Additional MIC testing was performed for several peptides against the ESKAPE pathogens Escherichia coli, Enterobacter cloacae, Klebsiella pneumoniae, and Acinetobacter baumannii, in CAA supplemented with human serum (Table D).

The nature of test [2]: Stability assessment in 100% CAA. The class given is in vitro ADME. Set-up: unit not given beside the values. As to the method:
Stability was assessed after incubation in 100% human serum at 37° C. after 10 minutes, 1 hour, and 2 hours.
Stability assessment was further conducted in 100% CAA and rabbit serum using the same methodology discussed above.

The subject of test [3] is carbapenem-resistant P. aeruginosa clinical isolate CFS-1292. Kind of test: MIC by modified CLSI broth microdilution against P. aeruginosa CFS-1292 (CAA, CAA + human serum). Conditions: for MIC (μg/mL) against CFS-1292 in 100% CAA (1st run/2nd run): 1st run or single value. Format: cell-based, Pseudomonas aeruginosa.
For test [4], the system named is M. smegmatis. Description: 45 hr MIC against M. smegmatis (NTM), Mueller Hinton broth. The class given is cell-based, Mycobacterium smegmatis. Particulars: M. smegmatis MC^2 155, Run #1.
The subject of test [5] is Acinetobacter baumannii. Kind of test: microbe, parasite or virus in culture. Conditions: Acinetobacter baumannii ATCC BAA 747; CAA supplemented with human serum. The class given is cell-based.
For test [6], the system named is Escherichia coli. Description: microbe, parasite or virus in culture. The class given is cell-based. Conditions: Escherichia coli ATCC 25922; CAA supplemented with human serum. As to the method: as §1, §2
In test [7] the test system is Enterobacter cloacae. Description: microbe, parasite or virus in culture. Format: cell-based. Conditions: Enterobacter cloacae ATCC 13047; CAA supplemented with human serum. As to the method:
as §1, §2

Test [8] has as its system P. aeruginosa strain CFS-1292. Kind of test: Checkerboard assay (FICI) with antibiotics, P. aeruginosa. The class given is cell-based, Pseudomonas aeruginosa. Conditions: for Antibiotic FIC: P. aeruginosa CFS-1292; for Antibiotic MIC in checkerboard: P. aeruginosa CFS-1292, CAA + […] human serum. The procedure: Any known method to assess MIC may be used.
Checkerboards are constructed by first preparing columns of e.g., a 96-well polypropylene microtiter plate, wherein each well has the same amount of antibiotic diluted 2-fold along the horizontal axis. […] Bacteria are added to the drug combinations at concentrations of 1×10^5 […] in CAA, for example, with or without human serum or pulmonary surfactant. […] Summation fractional inhibitory concentrations (ΣFICs) are calculated for each drug and the minimum ΣFIC value (ΣFICmin) is used to determine the effect of the Chp peptide/antibiotic combination.
(§3) Checkerboard assays. […] Checkerboards were constructed by first preparing columns of a 96-well polypropylene microtiter plate, in which each well had the same amount of antibiotic diluted 2-fold along the horizontal axis. […] Summation fractional inhibitory concentration index (FICIs) were calculated for each drug and the minimum FICI was used to determine synergy. FICIs were calculated as follows: FICI=FIC A+FIC B, where FIC A is the MIC of each antibiotic in the combination/MIC of the each antibiotic alone, and FIC B is the MIC of each Chp peptide in the combination/MIC of each Chp peptide alone. The combination is considered synergistic when the FICI is ≤0.5, strongly additive when the FICI is >0.5 to <1, additive with the FICI is 1-<2, and antagonistic when the FICI is ≥2.
In the checkerboard assay, fractional inhibitory concentration index (FICI) values are calculated.

Test [9] has as its system LPS. Description: Endotoxin neutralization, limulus amoebocyte lysate (LAL) enzyme assay, LPS binding. Format: biochemical. Particulars: LPS 0.8 EU/mL. As to the method:
CHEM. […] The standard reference samples contained only LPS dissolved in pyrogen-free water. Solutions were mixed well and incubated at 24° C. for 1 hour, and the manufacturers' test procedure for quantitative detection of endotoxins was followed.

Test [10] relates to Acinetobacter baumannii strain 30. Kind of test: Checkerboard assay (FICI) with antibiotics, A. baumannii. The class given is cell-based. Conditions: checkerboard. As to the method:
as §3
The results are shown below in Tables 22-27.

For test [11], the system named is Klebsiella pneumoniae strain 1139. Description: Checkerboard assay (FICI) with antibiotics, K. pneumoniae. Format: cell-based. Particulars: for Antibiotic FIC / Antibiotic MIC: checkerboard. As to the method: as §3

Where only a bound is given, the exact number is not on record here.

On to “MAGKKMVSKGKDRQIFRKTADRTKKMNVRPLLYRGGIRL [Chp12]”, for which the MIC in [1] worked out at 16 µg/mL; in [5] it was 1 µg/mL; in test [6] it was 8 µg/mL; in test [7], 32 µg/mL. The “MIC (100% CAA)” value in test [2] worked out at 8. Besides, the “MIC (μg/mL) against CFS-1292 in 100% CAA (1st run/2nd run)” value (“MIC (μg/mL) against CFS-1292 in 100% CAA” for short) in test [3] amounted to 8 µg/mL. Also, the “45 hr MIC” value in test [4] amounted to 64 µg/mL.

For “MAKKMTKGKDRQVFRKTADRTKKLNVRPLLYRGGIRL [Chp11]”, the MIC in test [1] is 16 µg/mL; in test [5], 32 µg/mL; in test [6], 2 µg/mL; in [7], 32 µg/mL. Moreover, the “MIC (100% CAA)” value in [2] was 16. In addition, the “MIC (μg/mL) against CFS-1292 in 100% CAA” value in [3] turned out to be 16 µg/mL. For the same substance, the “MIC (μg/mL) against CFS-1292 in CAA + […] human serum” value (shortened to “MIC (μg/mL) against CFS-1292 in CAA +”) in test [3] was determined as 4 µg/mL. Moreover, the “45 hr MIC” value in test [4] was determined as 32 µg/mL.

For “MAKRHKIPQRASQHSFTRHAQKVHPKNVPRLPMRGGIRL [AVQ244]”, in test [2], the “MIC (100% CAA)” value amounted to 64. The “MIC (μg/mL) against CFS-1292 in 100% CAA” value in [3] was 64 µg/mL. In addition, the “45 hr MIC” value in test [4] stood at 64 µg/mL.

Take “MCKKVCKKCPKKGPKNAPKIGAFYERKTPRLKQST [CPAR39]”: in [2], the “MIC (100% CAA)” value is on record as 4. The “MIC (μg/mL) against CFS-1292 in 100% CAA” value in [3] was determined as 4 µg/mL. Moreover, the “MIC (μg/mL) against CFS-1292 in CAA +” value in [3] is 1 µg/mL; in [3] (listed as CPAR39 + DTT) it was 4 µg/mL; in test [3] (listed as CPAR39 − DTT) it was 64 µg/mL. In addition, in test [4], the “45 hr MIC” value was more than 128 µg/mL.

Regarding “MKRKPMSRKASQKTFKKNTGVQRMNHLNPRAMRGGIRL [Bdp1]”, the MIC in [1], in test [5], in [6] and in test [7] was more than 32 µg/mL in each case. The “MIC (100% CAA)” value in test [2] was 16. Further, in [3], the “MIC (μg/mL) against CFS-1292 in 100% CAA” value worked out at 16 µg/mL. Further, in [3], the “MIC (μg/mL) against CFS-1292 in CAA +” value was more than 32 µg/mL. Moreover, the “45 hr MIC” value in test [4] amounted to 32 µg/mL.

Take “MKRRKMTRKGSKRLFTATADKTKSINTAPPPMRGGIRL [Chp7]”: the MIC in test [1] was 1 µg/mL; in [5], more than 32 µg/mL; in test [6], 8 µg/mL; in [7], more than 32 µg/mL. The “MIC (100% CAA)” value in test [2] is reported as 8. For the same substance, in [3], the “MIC (μg/mL) against CFS-1292 in 100% CAA” value was found to be 16 µg/mL. For the same substance, the “MIC (μg/mL) against CFS-1292 in CAA +” value in test [3] turned out to be 1 µg/mL. In test [4], the “45 hr MIC” value was 128 µg/mL.

For “MRRYNVNKGKSAKKFRKQVSKTKVANLRSNPMRGGWRL [Unp6]”, the “MIC (100% CAA)” value in test [2] is 8. Further, the “45 hr MIC” value in [4] turned out to be 16 µg/mL.

With “MSKKASRKSFTKGAVKVHKKNVPTRVPMRGGIRL [Gkh2]”, the MIC in [1] came out at 16 µg/mL; in test [5] it was 8 µg/mL; in test [6] it was 1 µg/mL; in test [7], 8 µg/mL. The “MIC (100% CAA)” value in test [2] is 16. The “MIC (μg/mL) against CFS-1292 in 100% CAA” value in test [3] is 16 µg/mL. For the same substance, the “45 hr MIC” value in test [4] came to 32 µg/mL.

With “MSSTLCRWAVKALRCTRVYKEFIWKPLVALSYVTLYLLSSVFLSQLSYPIGSWAV [Lvp1]”, in test [2], the “MIC (100% CAA)” value is listed as more than 64. Besides, in [3], the “MIC (μg/mL) against CFS-1292 in 100% CAA” value is more than 64 µg/mL and the “MIC (μg/mL) against CFS-1292 in CAA +” value was 0.5 µg/mL. In addition, in [3] (listed as Lvp1 + DTT), the “MIC (μg/mL) against CFS-1292 in CAA +” value was 2 µg/mL. Besides, in [4], the “45 hr MIC” value was more than 128 µg/mL.

In the case of “MTKRDIEYRKALGLNPSEPLPKIVGAVTRHGATLKRPRVTALAR [SBR77]”, the “MIC (100% CAA)” value in test [2] is reported as more than 64. For the same substance, the “MIC (μg/mL) against CFS-1292 in 100% CAA” value in test [3] turned out to be 4 µg/mL. Besides, the “MIC (μg/mL) against CFS-1292 in CAA +” value in test [3] was more than 16 µg/mL; in test [3] (listed as SBR77 (Sbr1)), 0.5 µg/mL. Also, in test [4], the “45 hr MIC” value was more than 64 µg/mL.

Regarding colistin [reference compound], the “Antibiotic FIC” value in [8] (combined with Chp2-M1) is 0.25; in [8] (combined with Chp2), 0.25; in test [8] (combined with Chp4-M1) it was 0.25; in [8] (combined with Chp6-M1), 0.25; in test [8] (combined with Unp2-M1) it was 0.25; in test [10] (in combination with Chp2-M1), 0.5. Besides, the “Antibiotic FIC” value is listed as 0.5 in test [10] (in combination with Chp4-M1); 0.25 in test [10] (in combination with Chp6-M1); 0.25 in test [10] (in combination with Chp10-M1); 0.5 in test [10] (in combination with Unp2-M1); 0.25 in [11] (in combination with Chp4-M1); 0.25 in test [11] (in combination with Chp10-M1). In addition, the “Antibiotic MIC in checkerboard” value was found to be 0.01562 µg/mL in test [8] (combined with Chp2-M1); 0.01562 µg/mL in test [8] (combined with Chp2); 0.03125 µg/mL in test [8] (combined with Chp4-M1); 0.01562 µg/mL in test [8] (combined with Chp6-M1); 0.007806 µg/mL in [8] (combined with Chp10-M1); 0.01562 µg/mL in [8] (combined with Unp2-M1). For the same substance, the “Antibiotic MIC in checkerboard” value in test [11] (combined with Chp2) was found to be 0.007812 µg/mL; in test [11] (combined with Chp2-M1), 0.01562 µg/mL. Moreover, the LPS binding result in [9] ([…]-64 μg/mL, 24° C., 1 hour) is on record as “dose-dependent increases in LPS binding”. Besides, the “% LPS Bound” value in test [9] (peptide concentration 0.5 μg/mL) was 22.5%; in [9] (peptide concentration 1 μg/mL), 51.9%; in test [9] (peptide concentration 2 μg/mL), 74.2%; in test [9] (peptide concentration 4 μg/mL) it was 88.2%; in test [9] (peptide concentration 8 μg/mL) it was 92.4%; in test [9] (peptide concentration 16 μg/mL) it was 92.8%. For the same substance, the “% LPS Bound” value was found to be 92.2% in test [9] (peptide concentration 32 μg/mL) and 93.4% in test [9] (peptide concentration 64 μg/mL). Further, the “Antibiotic MIC” value in test [10] (in combination with Chp2) stood at 0.0009766 µg/mL; in test [10] (in combination with Chp4-M1), 0.003906 µg/mL; in [10] (in combination with Chp10-M1), 0.0009766 µg/mL; in test [11] (in combination with Chp4-M1) it was 0.03125 µg/mL; in test [11] (in combination with Chp6-M1) it was 0.01562 µg/mL; in test [11] (in combination with Chp10-M1) it was 0.03125 µg/mL. The “Antibiotic MIC” value in test [11] (in combination with Unp2-M1) is 0.03125 µg/mL.
